The values that follow come from ChEMBL document CHEMBL5136989, “A review on the treatment of multiple myeloma with small molecular agents in the past five years” (Eur J Med Chem, 2022).

pIC50: −log10 of the molar value. A value given as a limit tells only on which side of the number the result lay.

The subject of the first assay is Proteasome. Description: Inhibition of proteasome (unknown origin). The format is subcellular, Homo sapiens.
Conditions: not given
Molecule `CC(C)C[C@H](NC(=O)[C@H](Cc1ccccc1)NC(=O)c1cnccn1)B(O)O` [BORTEZOMIB] gave a pIC50 of […].
On the same count and under the same terms, in the case of `CC(C)C[C@H](NC(=O)CNC(=O)c1cc(Cl)ccc1Cl)B(O)O` [IXAZOMIB] it was 8.30; in that of `CC(=O)N[C@@H](CCc1ccccc1)C(=O)N[C@@H](CC(C)C)C(=O)N[C@@H](Cc1ccccc1)C(=O)N[C@@H](CC(C)C)C(=O)[C@]1(C)CO1`, 6.59.
Still for that read-out and setting: the result for `NS(=O)(=O)OC[C@@H]1C[C@@H](n2ccc3c(N[C@H]4CCc5ccccc54)ncnc32)C[C@@H]1O` [PEVONEDISTAT] reads 8.40; that for `CC[C@H](C)[C@H](NC(=O)[C@H]([C@@H](C)CC)N(C)C(C)=O)C(=O)N[C@H](C(=O)N[C@@H](CC(C)C)C(=O)[C@@]1(C)CO1)[C@@H](C)O` [EPOXOMYCIN], 6.58; that for `CC(C)C[C@H](NC(=O)[C@H](CCc1ccccc1)NC(=O)CN1CCOCC1)C(=O)N[C@@H](Cc1ccccc1)C(=O)N[C@@H](CC(C)C)C(=O)[C@@]1(C)CO1` [CARFILZOMIB], 7.48.

System in the next assay: not listed separately
Description: Cytotoxicity against human multiple myeloma cells by WST-1 assay. Format: functional, cell-based. As to conditions: Multiple myeloma cell.
The molecule `O=C(CBr)N1CC([N+](=O)[O-])([N+](=O)[O-])C1` [NIBROZETONE] showed a negative-log IC50 (pIC50) of 5.90.
The same measure, in the same setting: in the case of `CCCSc1nc(NCCN)c2nnn(Cc3ccc(Cl)cc3)c2n1` it was 5.96; in that of `CN(C)CCC(CSc1ccccc1)Nc1ccc(S(=O)(=O)NC(=O)c2ccc(N3CCN(Cc4ccccc4-c4ccc(Cl)cc4)CC3)cc2)cc1[N+](=O)[O-]` (stereo not drawn), above 6.30.
On the same count and under the same terms, the result for `CCc1c(-c2ccc3[nH]ncc3c2)cnc(N)c1-c1ccc(O)cc1` reads 6.12; that for `O=C1c2ccccc2C(=O)c2oc(-c3cccnc3)nc21`, 7.00.
On the same count and under the same terms, the result for `CCN(CCCNC(=O)c1ccc2nc3c(c(Cl)c2c1)CCCC3)Cc1ccccc1` reads 4.65.
Take `CCCC(NC(=O)/C(C#N)=C/c1cccc(Br)n1)c1ccccc1` (stereo not drawn): the pIC50 is 5.80.
Same read-out and setting: in the case of `CC(NC(=O)/C(C#N)=C/c1cccc(/C=C(\C#N)C(=O)NC(C)c2ccccc2)c1)c1ccccc1` (stereo not drawn) it was 6.40; in that of `CC(=O)c1cc([N+](=O)[O-])c(Sc2cccc(Cl)c2Cl)s1`, 5.22; in that of `CN(CCCNC(=O)c1ccc2nc3c(c(Cl)c2c1)CCCC3)Cc1ccccc1`, 4.55.
The same measure, in the same setting: in the case of `N#C/C(=C/c1cccc(Br)n1)C(=O)NCc1cccc(CNC(=O)/C(C#N)=C\c2cccc(Br)n2)c1` it was 6.62; in that of `CCc1c(-c2ccc(C(=O)NC)nc2)cnc(N)c1-c1ccc(O)cc1`, 5.87; in that of `C=CC(=O)N1CC/C(=C\c2ccc(F)c([N+](=O)[O-])c2)C(=O)/C(=C/c2ccc(F)c([N+](=O)[O-])c2)C1`, 7.37.
In turn, `CS(=O)(=O)N1CCN(C(=S)Nc2ccc([N+](=O)[O-])cc2)CC1` gave a pIC50 of 4.47.

System in the next assay: not listed separately
Description: Immunomodulatory activity in human MM cells. Format: functional, cell-based. To be noted: multiple myeloma cell.
Consider `O=C1CC[C@H](N2Cc3c(OCc4ccc(CN5CCOCC5)cc4)cccc3C2=O)C(=O)N1` [IBERDOMIDE], for which the pIC50 is 7.89.
The same measure, in the same setting: the result for `O=C1CCC(N2C(=O)c3ccccc3C2=O)C(=O)N1` (stereo not drawn) [THALIDOMIDE] reads 3.71; that for `Cc1ccc(NC(=O)NCc2ccc3c(c2)CN(C2CCC(=O)NC2=O)C3=O)cc1Cl` (stereo not drawn), 9.52; that for `Nc1cccc2c1CN(C1CCC(=O)NC1=O)C2=O` (stereo not drawn) [LENALIDOMIDE], 7.09.
Still for that read-out and setting: the result for `Nc1cccc2c1C(=O)N(C1CCC(=O)NC1=O)C2=O` (stereo not drawn) [POMALIDOMIDE] reads 7.46.

A further assay concerns Multiple myeloma cancer stem cell. Description: Cytotoxicity against human Myeloma-stem like cells.
Conditions: not given
The format is functional, cell-based.
For `C=CCn1c(=O)c2cnc(Nc3ccc(N4CCN(C)CC4)cc3)nc2n1-c1cccc(C(C)(C)O)n1` [ADAVOSERTIB], the pIC50 was 6.51.

System in the next assay: not listed separately
Description: Anticancer activity in human multiple myeloma cells. Format: functional, cell-based. To be noted: Multiple myeloma cell.
`CC1(C)CCC(CN2CCN(c3ccc(C(=O)NS(=O)(=O)c4ccc(NCC5CCOCC5)c([N+](=O)[O-])c4)c(Oc4cnc5[nH]ccc5c4)c3)CC2)=C(c2ccc(Cl)cc2)C1` [VENETOCLAX] had a pIC50 of 7.57.
The molecule `O=C(/C=C\n1cnc(-c2cc(C(F)(F)F)cc(C(F)(F)F)c2)n1)NNc1cnccn1` [SELINEXOR] gave a pIC50 of 7.36.

System in another assay: not listed separately
Description: Induction of mitotic arrest in human multiple myeloma cells. Format: functional, cell-based. As to conditions: multiple myeloma cell.
Regarding `CN(C)c1ccccc1CN1CCCN(Cc2ccccc2N(C)C)C1c1ccncc1`, the negative logarithm of the IC50 (pIC50) was 5.30.
The same measure, in the same setting: in the case of `Cc1ccc(CN(CC(O)COc2cccc3[nH]ccc23)C(C)(C)C)cc1` (stereo not drawn) it was 4.55; in that of `c1cc(CN2CCCNCCNCCCNCC2)ccc1CN1CCCNCCNCCCNCC1` [PLERIXAFOR], 7.57; in that of `CON(C)C(=O)N1N=C(c2cc(F)ccc2F)S[C@@]1(CCCN)c1ccccc1` [FILANESIB], 8.21.
As for `O=[N+]([O-])c1ccc(O)c2ncccc12` [NITROXOLINE], the pIC50 was 5.28.
